For test [1], the system named is SE03. Kind of test: Antibacterial activity, broth microdilution MIC. The test is classed as cell-based, Salmonella enterica serovar Typhimurium SL1344. As to conditions: Salmonella enterica, read-out: Minimum Inhibitory Concentration (MIC). An excerpt: (§1) The referred library of thioxanthones was initially tested for their antimicrobial activity against six bacterial strains: the Gram-negative Escherichia coli ATCC 25922, Pseudomonas aeruginosa ATCC 27853 and Salmonella enterica serovar Typhimurium SL1344 (SE03), with the acrA gene deleted, and the Gram-positive Staphylococcus aureus ATCC 29213, Enterococcus faecalis ATCC 29212 and the methicillin and ofloxacin-resistant clinical isolate S. aureus 272123. For the synergy assay, two clinically relevant isolates were used: the extended-spectrum β-lactamase (ESBL)-producing E. coli SA/2 [23] and the vancomycin-resistant E. faecalis (VRE) B3/101 [23]. The antibiotics used were cefotaxime (CTX) and vancomycin (VAN), respectively.
(§2) The minimum inhibitory concentration (MIC) for each compound was determined by broth microdilution method in a 96-well plate according to the Clinical and Laboratory Standard Institute (CLSI) guidelines. The medium used was MHB II. The concentrations tested ranged from 100 µM to 0.195 µM and were prepared from a stock solution of 10 mM in DMSO, for S. aureus 272123 and SE03; for the other strains, the concentrations tested ranged from 64 µg/mL to 4 µg/mL and were prepared from a stock solution of 10 mg/mL in DMSO. DMSO was used in subinhibitory concentrations (1% v/v). The MIC was determined by visual inspection.

Test [2] relates to S. aureus ATCC 29213. Kind of test: Antibacterial activity, broth microdilution MIC. The test is classed as cell-based. As to conditions: Staphylococcus aureus, ATCC29213; S. aureus ATCC 29213; read-out: Minimum Inhibitory Concentration (MIC).
Excerpt: as §1, §2

Test [3] deals with S. aureus 272123. Briefly: Antibacterial activity, broth microdilution MIC. The test is classed as cell-based. As to conditions: Staphylococcus aureus, 272123, read-out: Minimum Inhibitory Concentration (MIC).
Excerpt: as §1, §2
Background: Broth dilution looks for growth in wells or tubes with falling amounts of substance.

Another test has as its system E. faecalis ATCC 29212. Briefly: Antibacterial activity, broth microdilution MIC. The test is classed as cell-based. Particulars: Enterococcus faecalis, ATCC29212; E. faecalis ATCC 29212; read-out: Minimum Inhibitory Concentration (MIC).
Excerpt: as §1, §2

The next test has as its system S. marcescens. Kind of test: Quorum sensing inhibition assay (pigment production). The test is classed as cell-based, Serratia marcescens AS-1. Particulars: Serratia marcescens, read-out: Quorum Sensing Inhibition (mm) ± SD. As for the experimental part:
(§3) Concerning the QS inhibition assay, the sensor strain Chromobacterium violaceum CV026 and the AHL producer strain Sphingomonas paucimobilis Ezf 10-17 (EZF) were inoculated as parallel lines, and the AHL producers Chromobacterium violaceum wild-type 85 (wt85) and Serratia marcescens AS-1 were inoculated as a single line. The interaction between the strains and compounds 2–18 was evaluated as the reduction of pigment production, in millimeters (mm) (Table 5) with promethazine (PMZ) as a positive control.
(§4) The QS inhibitory effect of the compounds was examined on the EZF and the sensor CV026 strains, on the wt85 strain, and on S. marcescens. The method used was the parallel inoculation method, where pair combinations of the used sensor strain CV026 and the N-acyl-homoserine lactone (AHL) producing strain EZF were inoculated directly onto the LB*-A agar surface in parallel, at an approximate distance of 5 mm from each other. S. marcescens AS-1 and wt85 were inoculated as a single line. Filter paper disks (7 mm in diameter) were placed on the center of the inoculated line(s) and impregnated with 8 µL of a solution of 10 mM of the compounds. […] The agar plates were incubated at room temperature (20 °C) for 24−48 h. The QS inhibition was accessed visually, through the inhibition of pigment production. The discolored, but intact, bacterial colonies were measured with a ruler.

The test system of the next test is wt85. The description is as above. The format is cell-based, Chromobacterium violaceum wild-type 85. As to conditions: Chromobacterium violaceum, read-out: Quorum Sensing Inhibition (mm) ± SD. As for the experimental part:
as §3, §4

In test [4] the test system is S. aureus 272123. Kind of test: Real-time ethidium bromide accumulation assay (efflux pump inhibition). The test is classed as cell-based, Staphylococcus aureus. Details: key: RFI = (RFtreated − RFuntreated)/RFuntreated at minute 60. As to conditions: compounds 50 µM, reserpine 25 µM, minute 60, EB 1 µg/mL. As for the experimental part: (§5) The relative fluorescence index (RFI) was calculated based on the means of relative fluorescence units, and theses RFIs are depicted in Table 4.
(§6) The compounds were evaluated for their ability to inhibit the efflux of EB, an efflux pump substrate, in Salmonella enterica serovar Typhimurium SE03 and S. aureus 272123 strains, through real-time fluorimetry, monitoring the intracellular accumulation of EB, an efflux pump substrate. This was determined by the automated method using a CLARIOstar Plus plate reader (BMG Labtech, Ortenberg, Germany). Reserpine and CCCP were applied at 25 µM as positive controls, and the solvent DMSO was applied at 1% v/v. The bacterial strains were incubated in an appropriate culture media (TSB–S. aureus 272123; LB-B–SE03) at 37 °C until they reached an optical density (OD) of 0.6 at 600 nm. The culture was centrifuged at 13,000× g for 3 min, and the pellet was washed and resuspended with phosphate buffered saline (PBS, pH 7.4). The suspension was centrifuged again in the same conditions and resuspended in PBS.
(§7) Then, 50 µL of this solution were transferred into a 96-well black microtiter plate (Greiner Bio-One Hungary Kft, Mosonmagyaróvár, Fertősor, Hungary), and 50 µL of bacterial suspension (OD600 = 0.6) were added to each well. The plates were placed into the CLARIOstar plate reader, and the fluorescence was monitored at excitation and emission wavelengths of 530 nm and 600 nm, respectively, every minute for one hour on a real-time basis. From the real-time data, the activity of the compounds, namely the relative fluorescence index (RFI) of the last time point (minute 60) of the EB accumulation assay, was calculated according to the following equation:(1) RFI=RFtreated−RFuntreated/RFuntreated where RFtreated is the relative fluorescence (RF) at the last time point of EB accumulation curve in the presence of the compound, and RFuntreated is the RF at the last time point of the EB accumulation curve of the untreated control, having only the solvent (DMSO) control. The accumulation curves were designed using Microsoft Excel®. The samples were tested in triplicate, and the RFI presented comes from the average of these three values. The accumulation graphs present the mean of the RF at the last time point. The standard deviation (SD) was calculated automatically and included in the RF graphs.

For test [5], the system named is S. aureus ATCC 29213. Kind of test: Inhibition of biofilm formation (crystal violet). Particulars: Staphylococcus aureus, ATCC29213, 48 h, S. aureus ATCC 29213, compounds 100 µM (compound 12 at 50 µM), read-out: Biofilm Inhibition (%) ± SD. The test is classed as cell-based.
Test [6] deals with SE03. Kind of test: Real-time ethidium bromide accumulation assay (efflux pump inhibition). The format is cell-based, Salmonella enterica serovar Typhimurium SL1344. As to conditions: compounds 50 µM (compound 12 at 17 µM), CCCP 25 µM, minute 60, EB 1 µg/mL. As for the experimental part: as §5, §6, §7

Structures are written as SMILES.

What is called inhibition is how much of the control response was suppressed. With `CCCOc1ccc2nc(N)nc3c2c1Sc1ccccc1-3` [Compound 16], the MIC in the test with SE03 [1], in the test with S. aureus ATCC 29213 [2], in the test on S. aureus 272123 [3] and with E. faecalis ATCC 29212 was more than 100 µM throughout. The zone of inhibition at 10000 µM in the test with S. marcescens and in the test on wt85 was 0 mm throughout. In addition, the figures for the “RFI ± SD” value in the test on S. aureus 272123 [4] and in the test on SE03 [6] were 0.96 ± 0.27 and 7.52 ± 0.01, respectively. The inhibition at 100 µM with S. aureus ATCC 29213 [5] amounted to 0%.
`CCCOc1ccc2nc(NCc3ccccc3Cl)nc3c2c1Sc1ccccc1-3` [Compound 17]: the MIC in the test on SE03 [1], with S. aureus ATCC 29213 [2], with S. aureus 272123 [3] and in the test on E. faecalis ATCC 29212 was more than 100 µM in each case. Besides, the zone of inhibition at 10000 µM with S. marcescens and in the test with wt85 was 0 mm in each case. Besides, the “RFI ± SD” value came out at 9.69 ± 0.95 in the test with S. aureus 272123 [4] and 25.51 ± 2.93 with SE03 [6]. Also, in the test with S. aureus ATCC 29213 [5], the inhibition at 100 µM amounted to 0%.
Consider `CCCOc1ccc2c3c(n/c(=N\c4ccccc4C)n2-c2ccccc2C)-c2ccccc2Sc13` [Compound 18], for which the MIC in the test on SE03 [1], with S. aureus ATCC 29213 [2], in the test with S. aureus 272123 [3] and in the test with E. faecalis ATCC 29212 was more than 100 µM each time. Besides, the zone of inhibition at 10000 µM with S. marcescens and with wt85 was 0 mm throughout. The figures for the “RFI ± SD” value in the test on S. aureus 272123 [4] and with SE03 [6] were 0.20 ± 0.03 and 0.20 ± 0.02, respectively. Further, the inhibition at 100 µM in the test with S. aureus ATCC 29213 [5] is 19.7 ± 7.46%.

Values taken from publication PMC8232621, “Antimicrobial Activity of a Library of Thioxanthones and Their Potential as Efflux Pump Inhibitors” (Pharmaceuticals, 2021).
